Test results taken from publication PMC9285603, “Flavan‐3‐ol Microbial Metabolites Modulate Proteolysis in Neuronal Cells Reducing Amyloid‐beta (1‐42) Levels” (Molecular Nutrition & Food Research, 2021).
Like-named read-outs stand apart in the source and are kept apart here. Blank lines part the entries; values can stand above or below the compound they belong to.

Assays:
brown adipocytes = tested on: brown adipocytes; parameters: method as in PMID 28276197; conditions: cited from earlier work
[1] = tested on: ubiquitin‐protein conjugates and p27; experiment: Western blot of proteasome substrates (ubiquitin‐protein conjugates, p27); assay type: cell-based, human
Method: (§1) Cell viability was evaluated with the 3‐(4,5‐dimethylthiazol‐2‐yl)‐2,5‐diphenyltetrazolium bromide assay (MTT).^[ [25] ^] Upon 6 h and 24 h treatment with increasing concentrations (0‐10 µM) of C1, C2, and C3 dissolved in DMSO, cells were washed in PBS, pH 7.5, and then MTT (final concentration 0.5 mg mL^−1) was added to the culture medium without FBS and incubated for 2 h at 37 °C. The medium was then removed and replaced with 100 µL of DMSO. The optical density was measured at 550 nm in a microtiter plate reader. At least six cultures were utilized for each time point. Neuroblastoma cells, control and transfected cells, were then treated with C1, C2, and C3 for 6 and 24 h at the concentrations 0–1–5 µM. Compounds were dissolved in DMSO and then added to cell culture media. Control cells were included in each time point. After removing the medium and washing with cold phosphate buffered saline (PBS), cells were harvested in 4 mL of PBS and centrifuged at 1600 × g for 5 min. The pellet was resuspended in lysis buffer (20 mM Tris, pH 7.4, 250 mM sucrose, 1 mM EDTA, and 5 mM β‐mercaptoethanol) and passed through a 29‐gauge needle at least ten times. Lysates were centrifuged at 12 000×g for 15 min and the supernatants were stored at ‐80°C until use. Protein concentration was determined by the method of Bradford using bovine serum albumin (BSA) as standard.^[ [26] ^]
(§2) Proteins were resolved on SDS–PAGE and electroblotted onto PVDF membranes. Membranes with transferred proteins were incubated with the primary monoclonal antibody and successively with the specific peroxidase conjugated secondary antibody. Monoclonal antibodies against Ub and p27 were obtained from Santa Cruz Biotechnology, Inc. (Heidelberg, Germany). SQSTM1/p62 (sequestosome 1, herein p62) mouse monoclonal antibody was from Sigma‐Aldrich S.r.L. (Milano, Italy) and the anti‐LC3B antibody was purchased from Cell Signaling Technology, Inc. The immunoblot detection was performed with ECL Western blotting detection reagents using a ChemiDoc MP system. Each gel was loaded with molecular weight markers in the range of 12 to 225 kDa (GE Healthcare). Glyceraldehyde‐3‐phosphate dehydrogenase (GAPDH) was utilized as a control for equal protein loading: membranes were stripped and re‐probed with anti‐GAPDH monoclonal antibody (Santa Cruz Biotechnology, Heidelberg, Germany). Stripping buffer contained 200 mM glycine, 0.1% SDS, and 1% Tween 20. Immunoblot images were quantified using ImageJ 1.52p software (NIH, USA).

20S immunoproteasome = target: T1, 20S immunoproteasome (Bos taurus, UniProt Q3SZC2+Q3T0T1+Q3T112); experiment: In vitro activity assays on isolated immunoproteasome (fluorogenic peptides); assay type: biochemical; conditions: isolated 20S from bovine thymus
T1 construct: isolated constitutive and immunoproteasomes purified from bovine brain and thymus, respectively; from tissue; host or cells: bovine thymus
Method: (§3) PVLs effects on the 20S constitutive and immunoproteasome peptidase activities were measured through in vitro assays performed with fluorogenic peptides as substrates. Isolation and purification of the 20S proteasome from bovine brain and thymus were performed as previously reported.^[ [23] ^] The incubation mixture contained the compound at concentrations ranging from 0.0 to 10 µM, 1 µg of the isolated 20S proteasome, the appropriate substrate (5 µM final concentration), and 50 mm Tris/HCl (pH 8.0), up to a final volume of 100 µL. Purified proteasomes were always preincubated with each compound at 37°C for 30 min before the fluorogenic peptide substrates were added to the reaction mixture. Final incubation was performed at 37°C, and after 60 min the fluorescence of the hydrolyzed 7‐amino‐4‐methyl‐coumarin (AMC) and 4‐aminobenzoic acid (pAB) was detected (AMC, λexc = 365 nm, λem = 449 nm; pAB, λexc = 304 nm, λem = 664 nm) on a SpectraMax Gemini XPS microplate reader.
(§4) PVLs were first tested on isolated constitutive and immunoproteasomes purified from bovine brain and thymus, respectively. The constitutive 20S proteasome is a barrel‐shaped complex of four stacked rings, made of seven α subunits in the two outer rings and seven β subunits in the two inner rings, the latter bearing the catalytically active sites in the β1, β2, and β5 subunits. Treatment with inflammatory cytokines induces the transcription of three additional active subunits, known as β1i, β2i, and β5i, that replace constitutive homologues during proteasome assembly.^[ [28] ^] Proteasome proteolytic activities depend on the hydroxyl group of the N‐terminal threonine (Thr‐1) residue, responsible for cleaving peptides through a nucleophilic attack.^[ [29] ^]

[2] = target: T2, constitutive 20S proteasome (Bos taurus, UniProt Q2TBP0+Q32KL2+Q3MHN0); experiment: In vitro activity assays on isolated constitutive 20S proteasome (fluorogenic peptides); assay type: biochemical; conditions: isolated 20S from bovine brain
T2 construct: isolated constitutive and immunoproteasomes purified from bovine brain and thymus, respectively; from tissue; host or cells: bovine brain
Method: as §3, §4

LC3II and p62 = experiment: Western blot of autophagy markers (LC3II, p62); assay type: cell-based, human; conditions: APPwt cells, long‐term (24 h) exposure
Method: as §1
as §2, with “Each gel was loaded with molecular weight markers in the range of 12 to 225 kDa (GE Healthcare). Glyceraldehyde‐3‐phosphate dehydrogenase (GAPDH) was utilized as a control for equal protein loading: membranes were stripped and re‐probed with anti‐GAPDH monoclonal antibody (Santa Cruz Biotechnology, Heidelberg, Germany). Stripping buffer contained 200 mM glycine, 0.1% SDS, and 1% Tween 20.” left out

26S proteasome = target: T3, 26S proteasome (Homo sapiens, UniProt P28074); experiment: 26S proteasome ChT‐L activity in cell lysates (fluorimetric); assay type: cell-based; conditions: cellular lysates, 24‐h exposure; versus untreated cells
T3 construct: ChT‐L activity of the 26S proteasome measured in control and transfected SH‐SY5Y cells; endogenous in cells; host or cells: SH-SY5Y (control, APPwt- and APPmut-transfected)
T3 sequence (P28074 60-263): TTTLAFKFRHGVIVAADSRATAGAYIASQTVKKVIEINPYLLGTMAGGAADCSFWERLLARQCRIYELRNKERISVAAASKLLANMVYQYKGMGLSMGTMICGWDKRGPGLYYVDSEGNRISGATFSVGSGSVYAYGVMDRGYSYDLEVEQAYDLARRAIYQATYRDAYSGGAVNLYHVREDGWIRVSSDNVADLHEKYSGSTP
Method: Cell viability was evaluated with the 3‐(4,5‐dimethylthiazol‐2‐yl)‐2,5‐diphenyltetrazolium bromide assay (MTT).^[ [25] ^] Upon 6 h and 24 h treatment with increasing concentrations (0‐10 µM) of C1, C2, and C3 dissolved in DMSO, cells were washed in PBS, pH 7.5, and then MTT (final concentration 0.5 mg mL^−1) was added to the culture medium without FBS and incubated for 2 h at 37 °C. The medium was then removed and replaced with 100 µL of DMSO. The optical density was measured at 550 nm in a microtiter plate reader. At least six cultures were utilized for each time point. […] Protein concentration was determined by the method of Bradford using bovine serum albumin (BSA) as standard.^[ [26] ^]
The effects on the proteasome system were evaluated through fluorimetric assays, as previously reported,^[ [27] ^] using the following synthetic substrates: Leu‐Leu‐Val‐Tyr‐AMC for ChT‐L, Leu‐Ser‐Thr‐Arg‐AMC for T‐L, Leu‐Leu‐Glu‐AMC for PGPH, and Gly‐Pro‐Ala‐Leu‐Ala‐AMC for BrAAP, whose test is performed with the addition of the aminopeptidase‐N (AP‐N). […] Incubation was performed at 37 °C, and after 60 min, the fluorescence of the hydrolyzed 7‐amino‐4‐methyl‐coumarin (AMC) was recorded (AMC, λexc = 365 nm, λem = 449 nm) on a SpectraMax Gemini XPS microplate reader. […] The fluorescence values of lysates were subtracted of the values of control assays in the presence of the two inhibitors.

Aβ(1‐42) = experiment: Quantification of Aβ(1‐42) by ELISA in medium and cellular extracts; assay type: cell-based, human; conditions: APPmut cells, 24 h, 5 µM
Method: Levels of Aβ(1‐42) secreted into the medium and present in cellular extracts were determined after PVLs treatment using the Human Aβ42 solid‐phase sandwich ELISA Kit from Invitrogen, following the manufacturer's instructions. For Aβ quantification in cell medium, culture medium was collected after neuronal cells treatment, centrifuged at 300 × g for 10 min to remove non adherent cells and debris and then treated with protease inhibitors.

Cathepsin B = target: T4, Cathepsin B (Homo sapiens, UniProt P07858); experiment: Cathepsin B activity in cell lysates (Z‐Arg‐Arg‐AMC); assay type: cell-based; conditions: APPmut cells, 6 h treatment
T4 construct: The mixture for cathepsin B, containing 1 µg of cell lysate; endogenous in cells; host or cells: SH-SY5Y (control, APPwt- and APPmut-transfected)
Method: as §1
Cathepsin B proteolytic activity was measured using the fluorogenic peptide Z‐Arg‐Arg‐AMC at a final concentration of 50 µM, as previously described.^[ [24] ^] The mixture for cathepsin B, containing 1 µg of cell lysate, was pre‐incubated in 100 mM phosphate buffer pH 6.0, 1 mM EDTA, and 2 mM dithiothreitol for 5 min at 30°C. Upon the addition of the substrate, the mixture was incubated for 15 min at 30°C. The fluorescent signal released by the hydrolyzed 7‐amino‐4‐methyl‐coumarin (AMC, λexc = 365 nm, λem = 449 nm) was detected on a SpectraMax Gemini XPS microplate reader.

[3] = parameters: method as in PMID 28891114; conditions: compared with parental compound EGCG; cited from earlier work
[4] = tested on: human neuroblastoma SH‐SY5Y cells; parameters: method as in PMID 28891114; conditions: cited from earlier work

Compound: O=C1CC[C@H](Cc2ccc(O)c(O)c2)O1 [(R)‐5‐(3ʹ,4ʹ‐dihydroxyphenyl)‐γ‐valerolactone]
protection from increased production of reactive oxygen species (brown adipocytes): protect brown adipocytes

IC50 (20S immunoproteasome; 30 min preincubation, 37°C, read-out: IC50 ChT‐L Immunoproteasome): 1450 ± 153 nM
IC50 (20S immunoproteasome; read-out: IC50 BrAAP Immunoproteasome): 88.4 ± 7 nM
IC50 (20S immunoproteasome; read-out: IC50 PGPH Immunoproteasome): 72.7 ± 5.7 nM
IC50 (20S immunoproteasome; read-out: IC50 T‐L Immunoproteasome): 588 ± 47.6 nM
IC50 ([2]; 30 min preincubation, 37°C, read-out: IC50 ChT‐L Constitutive proteasome): 109 ± 11 nM
IC50 ([2]; read-out: IC50 BrAAP Constitutive proteasome): 302 ± 27.8 nM
IC50 ([2]; read-out: IC50 PGPH Constitutive proteasome): 104 ± 11 nM
IC50 ([2]; read-out: IC50 T‐L Constitutive proteasome): 56.8 ± 2.3 nM
ChT‐L residual activity, 26S proteasome (26S proteasome): 60%
inhibition at 5 µM (Cathepsin B): 30%
Compound: O=C1CCC(Cc2ccc(OS(=O)(=O)O)c(O)c2)O1 (stereo not drawn) [Compound C3, 5‐(3ʹ‐hydroxyphenyl)‐γ‐valerolactone‐4ʹ‐sulfate]
levels of Ub‐conjugates and p27 ([1]; 6 h exposure, control and transfected SH‐SY5Y cells): no particular effect
levels of Ub‐conjugates and p27 ([1]; 24 h treatment, mainly in APPmut cells exposed to C1): evident increase
p62 degradation (LC3II and p62): favored p62 degradation
reduction of Aβ(1‐42) in cell extracts (Aβ(1‐42)): 35%
reduction of Aβ(1‐42) in cell medium (Aβ(1‐42)): 35%

Compound: O=C1CCC(Cc2cc(O)cc(O)c2)O1 (stereo not drawn) [5‐(3ʹ,5ʹ‐dihydroxyphenyl)‐γ‐valerolactone]
BBB permeability [3]: slightly higher
neurites outgrowth and elongation [4]: significantly induced
